Common to all, as to assay: NCI anticancer screen, dose series, 48 h
Experiment [1] relates to SNB-19.
The test system of experiment [2] is 786-0.
The subject of experiment [3] is A549.
The test system of experiment [4] is LOX IMVI.
For experiment [5], the system named is OVCAR-3.
The test system of experiment [6] is MOLT-4.
For experiment [7], the system named is BT-549.
For experiment [8], the system named is U-251.
Experiment [9] concerns COLO 205.
For experiment [10], the system named is HOP-62.
Experiment [11] concerns UO-31.
Experiment [12] relates to KM12.
Experiment [13] relates to CCRF-CEM.
For experiment [14], the system named is HCT-116.
In experiment [15] the test system is A498.
For experiment [16], the system named is K562.
Experiment [17] has as its system IGROV-1.
In experiment [18] the test system is OVCAR-4.
Experiment [19] concerns SK-MEL-28.
For experiment [20], the system named is SF-268.

Structures are written as SMILES.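 Interpolation was linear, between the two tested concentrations surrounding the appropriate level; five concentrations were tested over 48 hours in 96-well plates. GI50 is the concentration that inhibits growth by half.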 Active and inactive are the calls of the source. No stated cut-off is given here; in the data, active = GI50 up to about 1.1 µM and inactive = higher. Square brackets hold non-standard residues; d marks the D form. Peptide text beside a SMILES is read from it. * marks the point of attachment. Phe(4-NO2) = N[CH](Cc1ccc([N+](=O)[O-])cc1)C(=O)O; Cbz = O=C(OCc1ccccc1)*

Turning to `CCCCNCC(=O)O[C@]1(CC)C(=O)OCc2c1cc1n(c2=O)Cc2cc3ccccc3nc2-1`, the GI50 was 0.0542 µM (active) in experiment [1]; 0.0482 µM (active) in experiment [2]; 0.185 µM (active) in [3]; 0.0721 µM (active) in experiment [4]; 2.16 µM (inactive) in [5]; 0.017 µM (active) in [6]. For the same molecule, the GI50 in experiment [7] is 0.391 µM (active); in experiment [8] it was 0.0508 µM (active); in [9], 1.7 µM (inactive); in experiment [10], < 0.0277 µM (active); in [11] it was 0.207 µM (active); in experiment [12] it was 1.63 µM (inactive). In addition, the GI50 in experiment [13] is 0.0127 µM (active); in [14], 0.407 µM (active); in experiment [15], 0.741 µM (active); in experiment [16], 0.476 µM (active); in [17], 2.3 µM (inactive); in [18], 7.19 µM (inactive). The GI50 in [19] is 2.17 µM (inactive); in [20], 0.0851 µM (active).
On to `COC(=O)C(CCC1C=CN(S(=O)(=O)c2ccc(C)cc2)C1)/N=C/c1ccccc1` (stereo not drawn), for which the GI50 in experiment [1] was 45 µM (inactive); in experiment [2], 43.8 µM (inactive); in experiment [3], 42.4 µM (inactive); in experiment [4], 47.4 µM (inactive); in experiment [5], 35.9 µM (inactive); in [6], 32.8 µM (inactive). Besides, the GI50 in experiment [7] is 39.6 µM (inactive); in [8] it was 43.5 µM (inactive); in [9] it was 18.2 µM (inactive); in experiment [10], 59.2 µM (inactive); in experiment [11], 65.5 µM (inactive); in [12], 34.8 µM (inactive). Moreover, the GI50 in experiment [13] was 1.99 µM (inactive); in experiment [14], 33.4 µM (inactive); in experiment [15], 99.3 µM (inactive); in experiment [16], 34.7 µM (inactive); in experiment [17] it was 38.4 µM (inactive); in [18], 46.1 µM (inactive). The values for the GI50 in experiment [19] and in experiment [20] were 69.5 µM (inactive) and 69.8 µM (inactive), respectively.
As to `CS(=O)(=O)N(CC(=O)O)Cc1ccccc1`, the GI50 in [1], in [2], in [3], in [4], in experiment [5] and in experiment [6] was > 100 µM (inactive) each time. Also, the GI50 in experiment [7], in experiment [8], in experiment [9], in experiment [10], in experiment [12] and in [13] was > 100 µM (inactive) throughout. The GI50 in experiment [14], in experiment [15], in experiment [16], in experiment [17], in experiment [18] and in [19] was > 100 µM (inactive) throughout. Further, in experiment [20], the GI50 was > 100 µM (inactive).
Take `NCCCN1CCN(CCCNc2ccc3nnn4c5ccccc5c(=O)c2c34)CC1`: the GI50 is 12.8 µM (inactive) in experiment [1]; 9.06 µM (inactive) in [2]; 28.2 µM (inactive) in experiment [3]; 8.32 µM (inactive) in experiment [4]; 37.4 µM (inactive) in experiment [5]; 9.51 µM (inactive) in experiment [6]. Also, the GI50 in experiment [7] is 5.81 µM (inactive); in [8], 24 µM (inactive); in [9] it was 4.07 µM (inactive); in experiment [10] it was 13.7 µM (inactive); in experiment [11] it was 22.1 µM (inactive); in experiment [13] it was 9.91 µM (inactive). The GI50 in experiment [14] was 6.73 µM (inactive); in [15], 18.6 µM (inactive); in experiment [16] it was 8.07 µM (inactive); in [17], 13.5 µM (inactive); in experiment [18], 11.8 µM (inactive); in experiment [19], > 100 µM (inactive). Besides, the GI50 in experiment [20] was 31.3 µM (inactive).
With `COc1ccc(OC)c(/C=N/N=C2\C(=O)Nc3c(Cl)cc(Cl)cc32)c1`, the GI50 in [1] is > 100 µM (inactive); in experiment [2], 33.3 µM (inactive); in experiment [3], > 100 µM (inactive); in experiment [4] it was 47.6 µM (inactive); in [5] it was 70.3 µM (inactive); in experiment [6], 23.8 µM (inactive). Moreover, the GI50 in [7] is 26.1 µM (inactive); in experiment [8], 38.7 µM (inactive); in experiment [9] it was > 100 µM (inactive); in experiment [10], 19 µM (inactive); in experiment [11] it was 41.6 µM (inactive); in experiment [12] it was 35.4 µM (inactive). Moreover, the GI50 was 59.7 µM (inactive) in experiment [13]; 52.4 µM (inactive) in [14]; 71.6 µM (inactive) in [15]; 36 µM (inactive) in [16]; 34.3 µM (inactive) in experiment [17]; 38.2 µM (inactive) in [18]. In [19], the GI50 was > 100 µM (inactive).
Turning to `CCOC(=O)CCC(NC(=O)OCc1ccccc1)C(=O)NC(CCC(=O)OCC)C(=O)NC(CCC(=O)OCC)C(=O)NC(CCC(=O)OCC)C(=O)NC(CCC(=O)OCC)C(=O)NC(Cc1ccc([N+](=O)[O-])cc1)C(=O)NC(CCC(=O)OCC)C(=O)NC(CCC(=O)OCC)C(=O)NC(CCC(=O)OCC)C(=O)NC(CCC(=O)OCC)C(=O)NC(CCC(=O)OCC)C(=O)OCC` (stereo not drawn) (Cbz-E(OEt)E(OEt)E(OEt)E(OEt)E(OEt)[Phe(4-NO2)]E(OEt)E(OEt)E(OEt)E(OEt)E(OEt)-OEt; configuration not given here), the GI50 in experiment [1], in [2], in experiment [3], in experiment [4], in experiment [5] and in experiment [6] was > 50 µM (inactive) in each case. In addition, the GI50 in experiment [7], in [8], in [9], in experiment [10], in experiment [11] and in experiment [12] was > 50 µM (inactive) throughout. Also, the GI50 is > 50 µM (inactive) in [13]; > 50 µM (inactive) in [15]; > 50 µM (inactive) in [16]; > 50 µM (inactive) in experiment [17]; 23 µM (inactive) in experiment [18]; > 50 µM (inactive) in [19]. The GI50 in experiment [20] was > 50 µM (inactive).
For `[N-]=[N+]=CC(=O)OC1CCc2ccccc21` (stereo not drawn), the GI50 in experiment [1] is > 100 µM (inactive); in [2], 61.9 µM (inactive); in [4], > 100 µM (inactive); in experiment [5], > 100 µM (inactive); in experiment [7], > 100 µM (inactive); in experiment [8], > 100 µM (inactive). Also, the GI50 was 73.1 µM (inactive) in [9]; 55.2 µM (inactive) in [10]; 13.7 µM (inactive) in [11]; > 10 µM (inactive) in [13]; > 100 µM (inactive) in experiment [14]; > 100 µM (inactive) in experiment [15]. The GI50 in [16], in experiment [17], in [18], in [19] and in [20] was > 100 µM (inactive) throughout.
